PubChem BioAssay AID1963868 (Molecular Pharmacology Branch, DTP, NCI, 2024)

System: KRAS PDC tumor spheroids (HUVEC+MSC), viability
Assay: Anticancer human tumor 254851-301-R-J1-PDC patient-derived colon carcinoma cell line growth inhibition [KRAS2]
Settings: for IC50: curve of first compound; for viability, T/C: stronger effect = lower value
Description: Multicellular complex tumor spheroid response to RAS pathway inhibitors in combination with a targeted agents in patient-derived cell lines with oncogenic KRAS variants from multiple cancer types
A high-throughput screen of multi-cell type tumor spheroids was designed to identify active combinations of targeted small molecules and KRAS pathway inhibitors. Complex spheroids include a stromal component modeled by human endothelial cells (HUVEC) and fibroblasts modeled by human mesenchymal stem cells (MSCs). The concentration ranges selected for each drug and investigational agent were based upon clinically achievable concentrations if the clinical Cmax of the agent was known.
Compounds. The drugs and investigational agents: BI-3406 (NSC825286), BAY-293 (NSC824723), batoprotafib (TNO155; NSC825523), sotorasib (AMG 510; NSC818433), MRTX1257 (NSC819558), elimusertib (BAY 1895344; NSC800525), molibresib (GSK525762; NSC774829), temuterkib (LY3214996; NSC803410), venetoclax (NSC766270), alisertib (NSC759677), olaparib (NSC753686), talazoparib (NSC767125), erdafitinib (NSC781556), ipatasertib (NSC767898), cabozantinib (NSC761068), nintedanib (NSC756659), abemaciclib (NSC768073), docetaxel (NSC628503), trametinib (NSC758246), and sapanisertib (NSC764658) were obtained from the National Cancer Institute (NCI) Developmental Therapeutics Program Chemical Repository. The FDA-approved anticancer drug set is available from the Developmental Therapeutics Program. […] The stock solutions were prepared in dimethyl sulfoxide (DMSO, Sigma-Aldrich, St. Louis, MO, cat. D2650) at 800-fold the tested concentration and stored at -70 degrees C prior to their use. All drugs and investigational agents were tested over a range starting from a high concentration at or near the clinical Cmax and decreasing in half-log increments. If the clinical Cmax for an agent had not been determined, the highest concentration tested was 10 microM.
Cell Culture. All cells were maintained in an incubator at 37 degrees C and 5% CO2 with 95% humidity. The PDC lines were cultured according to standard operating procedures established by the NCI PDMR (https://pdmr.cancer.gov/sops/default.htm). Briefly, all PDCs were thawed and cultured in Matrigel-coated flasks prepared with a working solution of 1X Ham's F-12 nutrient mix, without supplementation (Invitrogen, Waltham, MA, cat. 11765054), 100 U/mL penicillin-streptomycin (Invitrogen, cat. 15140122), and 2.5% Matrigel (Corning Inc., Corning, NY, cat. 354248) for the first three passages. All PDCs were cultured in complete DMEM/F-12 media containing advanced DMEM/F-12 (Invitrogen, cat. 12634028), 4.9% defined fetal bovine serum, heat inactivated (HyClone Laboratories Inc., Logan, UT, cat. SH30070.03HI), 389 ng/mL hydrocortisone (Sigma-Aldrich, cat. H4001), 9.7 ng/mL human EGF recombinant protein (Invitrogen, cat. PHG0313), 23.4 microg/mL adenine (Sigma-Aldrich, cat. A2786), 97.3 U/mL penicillin-streptomycin (Invitrogen, cat. 15140122), 1.9 mM L-glutamine (Invitrogen, cat. 25030081), and 9.7 microM Y-27632 dihydrochloride (Tocris Bioscience, Bristol, United Kingdom, cat. 1254). The PDCs were cultured in complete DMEM/F12 media without 9.7 microM Y-27632 dihydrochloride for at least two passages prior to the screen. The established cell line HOP-62 was cultured in RPMI 1640 medium, HEPES (Invitrogen, cat. 22400105) with 10% defined fetal bovine serum (HyClone Laboratories Inc., cat. SH30070.03) and 2 mM L-glutamine (Invitrogen, cat. 25030081). The pooled donor HUVEC were cultured in endothelial cell growth medium 2 (PromoCell, Heidelberg, Germany, cat. C-22011) and the hMSC were cultured in mesenchymal stem cell growth medium 2 (PromoCell, cat. C-28009). For all experiments, HUVEC and hMSC were used at passages </=5, while the malignant cell lines were used at passages </=15. […]

[1] = second compound 0.1 µM, first compound 0.0316 µM
[2] = second compound 0.1 µM, first compound 0.1 µM
[3] = second compound 0.316 µM, first compound 0.0316 µM
[4] = second compound 0.316 µM, first compound 0.1 µM
[5] = second compound 1 µM, first compound 0.0316 µM
[6] = second compound 1 µM, first compound 0.1 µM
[7] = second compound 3.16 µM, first compound 0.0316 µM
[8] = second compound 3.16 µM, first compound 0.1 µM
[9] = second compound 10 µM, first compound 0.0316 µM
[10] = second compound 10 µM, first compound 0.1 µM
[11] = second compound 0.1 µM, first compound 0.316 µM
[12] = second compound 0.1 µM, first compound 1 µM
[13] = second compound 0.1 µM, first compound 3.16 µM
[14] = second compound 0.1 µM, first compound 10 µM
[15] = second compound 0.316 µM, first compound 0.316 µM
[16] = second compound 0.316 µM, first compound 1 µM
[17] = second compound 0.316 µM, first compound 3.16 µM
[18] = second compound 0.316 µM, first compound 10 µM
[19] = second compound 1 µM, first compound 0.316 µM
[20] = second compound 1 µM, first compound 1 µM
[21] = second compound 1 µM, first compound 3.16 µM
[22] = second compound 1 µM, first compound 10 µM
[23] = second compound 3.16 µM, first compound 0.316 µM
[24] = second compound 3.16 µM, first compound 1 µM
[25] = second compound 3.16 µM, first compound 3.16 µM
[26] = second compound 3.16 µM, first compound 10 µM
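Further: spheroids exposed to compounds for seven days before readout.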
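Wherever viability, T/C is given: 100% = DMSO vehicle control luminescence of the spheroids.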

With `CN(C)C/C=C/C(=O)Nc1cc2c(Nc3ccc(F)c(Cl)c3)ncnc2cc1O[C@H]1CCOC1` + COc1cc2nc(C)nc(NC(C)c3cc(N)cc(C(F)(F)F)c3)c2cc1OC1CCOC1 the IC50 (second compound 0.1 µM) was > 100 nM, the IC50 (second compound 0.316 µM) was > 100 nM and the IC50 (second compound 1 µM) was > 100 nM. The IC50 (second compound 3.16 µM) was > 100 nM, the IC50 (second compound 10 µM) was > 100 nM and the viability, T/C (second compound 0.1 µM, first compound 0.000316 µM) was 104%. For the same molecule, the viability, T/C (second compound 0.1 µM, first compound 0.001 µM) was 110%, the viability, T/C (second compound 0.1 µM, first compound 0.00316 µM) was 108% and the viability, T/C (second compound 0.1 µM, first compound 0.01 µM) was 102%. For the same molecule, the viability, T/C [1] was 96.5%, the viability, T/C [2] was 75.3% and the viability, T/C (second compound 0.316 µM, first compound 0.000316 µM) was 102%. For the same molecule, the viability, T/C (second compound 0.316 µM, first compound 0.001 µM) was 102%, the viability, T/C (second compound 0.316 µM, first compound 0.00316 µM) was 91.9% and the viability, T/C (second compound 0.316 µM, first compound 0.01 µM) was 87.9%. For the same molecule, the viability, T/C [3] was 88%, the viability, T/C [4] was 74.7% and the viability, T/C (second compound 1 µM, first compound 0.000316 µM) was 99.5%. The viability, T/C (second compound 1 µM, first compound 0.001 µM) was 101%, the viability, T/C (second compound 1 µM, first compound 0.00316 µM) was 92.7% and the viability, T/C (second compound 1 µM, first compound 0.01 µM) was 81.8%. It also gave a viability, T/C [5] of 85.9%, a viability, T/C [6] of 81.7% and a viability, T/C (second compound 3.16 µM, first compound 0.000316 µM) of 91%. For the same molecule, the viability, T/C (second compound 3.16 µM, first compound 0.001 µM) was 85.3%, the viability, T/C (second compound 3.16 µM, first compound 0.00316 µM) was 89.7% and the viability, T/C (second compound 3.16 µM, first compound 0.01 µM) was 78.7%. For the same molecule, the viability, T/C [7] was 84.6%, the viability, T/C [8] was 63.5% and the viability, T/C (second compound 10 µM, first compound 0.000316 µM) was 78.2%. It also gave a viability, T/C (second compound 10 µM, first compound 0.001 µM) of 78.9%, a viability, T/C (second compound 10 µM, first compound 0.00316 µM) of 81.6% and a viability, T/C (second compound 10 µM, first compound 0.01 µM) of 82.9%. For the same molecule, the viability, T/C [9] was 65.9% and the viability, T/C [10] was 59.5%.
In the case of `CC1OCC2(CCN(c3cnc(Sc4ccnc(N)c4Cl)c(N)n3)CC2)C1N` (stereo not given) + C=CC(=O)N1CCN(c2nc(OCC3CCCN3C)nc3c2CCN(c2cccc4cccc(C)c24)C3)CC1CC#N, the IC50 (second compound 0.0316 µM) is reported as > 10000 nM, the IC50 (second compound 0.1 µM) is reported as > 10000 nM and the IC50 (second compound 0.316 µM) is reported as > 10000 nM. For the same molecule, the IC50 (second compound 1 µM) was > 10000 nM, the IC50 (second compound 3.16 µM) was > 10000 nM and the viability, T/C (second compound 0.0316 µM, first compound 0.0316 µM) was 101%. For the same molecule, the viability, T/C (second compound 0.0316 µM, first compound 0.1 µM) was 99.7%, the viability, T/C (second compound 0.0316 µM, first compound 0.316 µM) was 102% and the viability, T/C (second compound 0.0316 µM, first compound 1 µM) was 85.4%. The viability, T/C (second compound 0.0316 µM, first compound 3.16 µM) was 77.2%, the viability, T/C (second compound 0.0316 µM, first compound 10 µM) was 75.3% and the viability, T/C [1] was 115%. The viability, T/C [2] was 107%, the viability, T/C [11] was 89.3% and the viability, T/C [12] was 85.3%. It also gave a viability, T/C [13] of 77.1%, a viability, T/C [14] of 83% and a viability, T/C [3] of 89.8%. It also gave a viability, T/C [4] of 95.6%, a viability, T/C [15] of 93.4% and a viability, T/C [16] of 84.7%. The viability, T/C [17] was 83.4%, the viability, T/C [18] was 72.8% and the viability, T/C [5] was 59.1%. For the same molecule, the viability, T/C [6] was 68.1%, the viability, T/C [19] was 65.3% and the viability, T/C [20] was 69%. For the same molecule, the viability, T/C [21] was 66.2%, the viability, T/C [22] was 64.8% and the viability, T/C [7] was 60.1%. The viability, T/C [8] was 58.7%, the viability, T/C [23] was 59.4% and the viability, T/C [24] was 68.5%. The viability, T/C [25] was 60.6% and the viability, T/C [26] was 58.9%.
`Cn1nccc1Nc1nccc(-c2cc3c(s2)C(C)(C)N(CCN2CCOCC2)C3=O)n1` + CNCc1ccccc1-c1csc(C(C)Nc2nc(C)nc3cc(OC)c(OC)cc23)c1 showed an IC50 (second compound 0.1 µM) of 2080 nM, an IC50 (second compound 0.316 µM) of 2500 nM and an IC50 (second compound 1 µM) of 1610 nM. For the same molecule, the IC50 (second compound 3.16 µM) was < 31.6 nM, the IC50 (second compound 10 µM) was < 31.6 nM and the viability, T/C [1] was 106%. The viability, T/C [2] was 97.4%, the viability, T/C [11] was 99.6% and the viability, T/C [12] was 89.8%. For the same molecule, the viability, T/C [13] was 27.4%, the viability, T/C [14] was 3.87% and the viability, T/C [3] was 90.7%. For the same molecule, the viability, T/C [4] was 94.5%, the viability, T/C [15] was 86.7% and the viability, T/C [16] was 81.3%. For the same molecule, the viability, T/C [17] was 42%, the viability, T/C [18] was 4.06% and the viability, T/C [5] was 95.4%. The viability, T/C [6] was 106%, the viability, T/C [19] was 93.3% and the viability, T/C [20] was 77.4%. The viability, T/C [21] was 11.2%, the viability, T/C [22] was 3.35% and the viability, T/C [7] was 25.9%. For the same molecule, the viability, T/C [8] was 51%, the viability, T/C [23] was 58% and the viability, T/C [24] was 24.2%. It also gave a viability, T/C [25] of 0.16%, a viability, T/C [26] of 0.12% and a viability, T/C [9] of 0.09%. For the same molecule, the viability, T/C [10] was 0.11%, the viability, T/C (second compound 10 µM, first compound 0.316 µM) was 0.08% and the viability, T/C (second compound 10 µM, first compound 1 µM) was 0.06%. For the same molecule, the viability, T/C (second compound 10 µM, first compound 3.16 µM) was 0.06% and the viability, T/C (second compound 10 µM, first compound 10 µM) was 0.09%.
